Assay results from patent publication US20250177392A1, “BROAD SPECTRUM INHIBITORS OF CYTOMEGALOVIRUS” (MICROBIOTIX, INC., priority 2022, published 2025).

Legend:
[1] = tested on: EBV Akata; assay: Herpes virus panel neutralization, EBV; type: cell-based, Epstein-Barrvirus
Experimental: (§1) To determine the specificity of MBX-4992, additional neutralization experiments were conducted using a panel of herpes viruses performed in the presence of MBX-4992. […] Collectively, the antiviral activity of MBX-4992 is equivalent to that of GCV indicating specific inhibition of CMV replication.

[2] = tested on: AD169 and AD169^R; assay: IE1 expression 2 days post-infection in fibroblasts; type: cell-based, Human cytomegalovirus
Experimental: HCMV strains AD169^R (A) and AD169 (B) infection (MOI 0.2) of NHDF cells pre-treated with 0, 5, and 20 μM MBX-4992 were assessed at 1 dpi or 2 dpi based on IE1 expression by anti-IE1 immunostain. The % infection was determined using DMSO-treated as 100% infection. The error bars represent values in triplicate. Statistical tests were performed using ordinary one-way ANOVA with multiple comparisons to DMSO treated cells as a control and a Dunnett's post-test; **, p<0.01; ****, p<0.0001. (C) Total cell lysates from AD169^R-infected (MOI 0.2) ARPE-19 cells pre-treatment with DMSO, MBX-4992 (1-20 μM) or heparin (50 μg/mL) collected at 24 hpi were subjected to Western blot analysis using a rabbit anti-IE-1 antibody (lanes 1-7) and an anti-GAPDH antibody (lanes 8-14) as a loading control. The molecular weight markers and respective proteins are indicated.
(FIG. 11A-G). […] The IC50 values were similar in diverse cell types and among the different strains further supporting that NAPA compounds are effective at inhibiting CMV infection.

[3] = tested on: HSV-2 G; assay: Herpes virus panel neutralization, HSV-2; type: cell-based, Herpes simplex virus 2
Experimental: as §1

[4] = tested on: CMV strains AD169^R and TB40/E; assay: CMV infection assay, strains AD169^R and TB40/E together; type: cell-based, Human cytomegalovirus
[5] = Murine liver microsome stability; type: in vitro ADME; conditions: % remaining after 30 min at 37° C. in the presence of NADPH
[6] = tested on: AD169^R; assay: Generation of infectious virions (supernatant infectious dose); type: cell-based, Human cytomegalovirus; conditions: MRC5 fibroblasts and ARPE-19 cells, MOI 0.5, 1-20 μM for 5 days
Experimental: FIGS. 13A and B are graphs showing that MBX-4992 limits the generation of infectious virions in fibroblasts and epithelial cells. MRC5 and ARPE-19 cells infected with AD169^R (MOI 0.5) were treated with DMSO, MBX-4992 (1, 5, 10, and 20 μM), and ganciclovir (5 μM) for 5 days, washed, and replaced with media for 3 days. The supernatant of MRC5 treated-cells (A) and ARPE-19-treated (B) cells was used to infect MRC5 cells. Virus infection was analyzed 24 hpi using GFP fluorescent signal as the readout with a Celigo cytometer. The viral infectious dose (IU/ml) was determined from each condition. The error bars are based on differences of infectious dose from 5 samples. Statistical tests were performed using ordinary one-way ANOVA with multiple comparisons to DMSO treated cells as a control and a Dunnett's post-test ****, p<0.0001.

[7] = Cytotoxicity (CC50) against Hela cells for 3 d; type: cell-based; conditions: human
[8] = tested on: MCMV Smith; assay: Herpes virus panel neutralization, MCMV; type: cell-based, Murine cytomegalovirus
Experimental: as §1

[9] = tested on: HCMV AD169; assay: Herpes virus panel neutralization, HCMV AD169; type: cell-based, Human cytomegalovirus
Experimental: as §1

[10] = tested on: HCMV strain AD169^R; assay: CMV infection (neutralization) assay, GFP/IE1 readout 24 hpi, AD169^R; type: cell-based, Human cytomegalovirus; conditions: Human betaherpesvirus 5, AD169, Fibroblast
Experimental: Fibroblasts and ARPE-19 cells (10^4) were plated in 96-well plates (Greiner, Monroe, NC). The following day the cells were pretreated for 1 hour at 37° C. with increasing concentrations of the respective novel NAPA compounds described herein or DMSO in triplicate prior to infection with the respective viruses. At 18 hours post infection (hpi) cells were stained using a rabbit anti-IE1 antibody followed by an anti-rabbit Alexa 647 and measured using a Celigo Cytometer (Parsons et al., Antiviral Res., 193:105124 (2021); Stein et al., Nat. Commun., 10:2699 (2019)). Using the DMSO treated cells as 100% infection, the percent infection of the NAPA compound-treated cells was determined. The half maximal inhibitory (IC50) values were calculated using Prism9's nonlinear fit [inhibitor]-vs-response (four parameters) analysis of these averages and extrapolation to the concentration that would produce 50% infection relative to DMSO treatment.
To further evaluate the inhibitory properties of MBXC-4302 against CMV, we utilized the AD169 CMV virus strain containing the UL131-UL128 open reading frame of the HCMV strain TR and expressing EGFP (AD169^R) (Wang D. and Shenk T., Proc. Nat. Acad. Sci., USA, 102:18153-18158 (2005)) and TB40/E infection of human fibroblasts (NHDF) and ARPE-19 epithelial cells in the presence of increasing concentration of compound (FIG. 2A-D). Infection was analyzed 24 hours post infection (hpi) by measuring GFP fluorescence encoded by AD169^R or using an anti-IE1 antibody for staining TB40/E infected cells.
NAPA variants with modified groups were evaluated for inhibition of CMV infection in fibroblasts. AD169^R infected fibroblasts were treated with NAPA compounds MBX-4992, MBXC-4325, MBXC-4330, and MBXC-4336 (0-50 μM) and analyzed for infection at 24 hpi (FIG. 6A-D). The infected cells were probed for IE1 as an indication of virus infection.

| Compound | SI [1] | IC50 ([1]; human gammaherpesvirus 4) | IE1 expression [2] | SI [3] | IC50 ([3]; Human alphaherpesvirus 2) | infection of trophoblasts ([4]; HRT8svNEO trophoblasts, 24 hpi, IE1 immunostain) | IC50 ([4]; Human betaherpesvirus 5, AD169, read-out: IC50 values ranging) | MLMS [5] | generation of infectious virions [6] | CC50 at 3 d [7] | SI ([8]; MCMV Smith) | IC50 ([8]; Murid betaherpesvirus 1) | SI ([9]; HCMV AD169) | IC50 ([9]; Human betaherpesvirus 5, AD169) | IC50 [10] |
| --- | --- | --- | --- | --- | --- | --- | --- | --- | --- | --- | --- | --- | --- | --- | --- |
| Cc1nc(Nc2ccc(NC(=O)c3ccco3)cc2)cc(N2CCCC2)n1 [MBX-4992] | >3 | 30.9 µM | similarly effective at limiting IE1 expression | 1 | > 150 µM | limited infection | 1.9 to 4.8 µM | 49% | significantly decreased generation of infectious AD169^R virions | > 100 µM | >33 | 4.5 µM | >88 | 1.7 µM |  |
| Cc1nc(Nc2cccc(NC(=O)c3ccco3)c2)cc(N2CCCCC2)n1 [MBXC-4336] |  |  |  |  |  |  |  |  |  |  |  |  |  |  | 2.9 µM |
